Measurements: the NIST ThermoML archive (doi:10.1021/je8008254)
± gives the expanded uncertainty stated by the source.

Experiment: xn = mol fraction of the nth substance listed
Settings: 101 kPa, Liquid

SMILES: CCCCn1cc[n+](C)c1.N#C[S-] [1-butyl-3-methylimidazolium thiocyanate] + CCCO
- mass density (298.15 K, x1 = 0.0267): 819.06 ± 1.2 kg/m3
- viscosity (298.15 K, x1 = 0.0267): 2.26 ± 0.1 mPa·s
- mass density (298.15 K, x1 = 0.0833): 854.16 ± 1.1 kg/m3
- viscosity (298.15 K, x1 = 0.0833): 2.87 ± 0.13 mPa·s
- mass density (298.15 K, x1 = 0.1849): 903.16 ± 0.88 kg/m3
- viscosity (298.15 K, x1 = 0.1849): 4.27 ± 0.19 mPa·s
- mass density (298.15 K, x1 = 0.2538): 930.41 ± 0.78 kg/m3
- viscosity (298.15 K, x1 = 0.2538): 5.34 ± 0.24 mPa·s
- mass density (298.15 K, x1 = 0.3429): 959.02 ± 0.69 kg/m3
- viscosity (298.15 K, x1 = 0.3429): 7.42 ± 0.31 mPa·s
- mass density (298.15 K, x1 = 0.4577): 988.94 ± 0.64 kg/m3
- viscosity (298.15 K, x1 = 0.4577): 10.9 ± 0.4 mPa·s
- mass density (298.15 K, x1 = 0.5868): 1015.47 ± 0.77 kg/m3
- viscosity (298.15 K, x1 = 0.5868): 16.7 ± 0.6 mPa·s
- mass density (298.15 K, x1 = 0.6791): 1030.55 ± 0.94 kg/m3
- viscosity (298.15 K, x1 = 0.6791): 20.5 ± 0.8 mPa·s
- mass density (298.15 K, x1 = 0.805): 1048.14 ± 1.2 kg/m3
- viscosity (298.15 K, x1 = 0.805): 25.8 ± 1 mPa·s
- mass density (298.15 K, x1 = 0.9342): 1062.97 ± 1.5 kg/m3
- viscosity (298.15 K, x1 = 0.9342): 38.6 ± 1.5 mPa·s
- mass density (298.15 K, x1 = 1): 1069.79 ± 1.6 kg/m3
- viscosity (298.15 K, x1 = 1): 51.7 ± 1.2 mPa·s
- mass density (308.15 K, x1 = 0.0267): 811.18 ± 1.3 kg/m3
- viscosity (308.15 K, x1 = 0.0267): 1.8 ± 0.08 mPa·s
- mass density (308.15 K, x1 = 0.0833): 846.63 ± 1.1 kg/m3
- viscosity (308.15 K, x1 = 0.0833): 2.3 ± 0.11 mPa·s
- mass density (308.15 K, x1 = 0.1849): 895.99 ± 0.91 kg/m3
- viscosity (308.15 K, x1 = 0.1849): 3.39 ± 0.15 mPa·s
- mass density (308.15 K, x1 = 0.2538): 923.49 ± 0.81 kg/m3
- viscosity (308.15 K, x1 = 0.2538): 4.21 ± 0.19 mPa·s
- mass density (308.15 K, x1 = 0.3429): 952.34 ± 0.72 kg/m3
- viscosity (308.15 K, x1 = 0.3429): 5.71 ± 0.25 mPa·s
- mass density (308.15 K, x1 = 0.4577): 982.5 ± 0.66 kg/m3
- viscosity (308.15 K, x1 = 0.4577): 8.22 ± 0.34 mPa·s
- mass density (308.15 K, x1 = 0.5868): 1009.21 ± 0.74 kg/m3
- viscosity (308.15 K, x1 = 0.5868): 12.3 ± 0.5 mPa·s
- mass density (308.15 K, x1 = 0.6791): 1024.39 ± 0.91 kg/m3
- viscosity (308.15 K, x1 = 0.6791): 14.8 ± 0.6 mPa·s
- mass density (308.15 K, x1 = 0.805): 1042.09 ± 1.2 kg/m3
- viscosity (308.15 K, x1 = 0.805): 18.1 ± 0.7 mPa·s
- mass density (308.15 K, x1 = 0.9342): 1057.02 ± 1.4 kg/m3
- viscosity (308.15 K, x1 = 0.9342): 26.2 ± 1 mPa·s
- mass density (308.15 K, x1 = 1): 1063.89 ± 1.6 kg/m3
- viscosity (308.15 K, x1 = 1): 34.9 ± 1.3 mPa·s
- mass density (318.15 K, x1 = 0.0267): 803.18 ± 1.3 kg/m3
- viscosity (318.15 K, x1 = 0.0267): 1.46 ± 0.07 mPa·s
- mass density (318.15 K, x1 = 0.0833): 839 ± 1.1 kg/m3
- viscosity (318.15 K, x1 = 0.0833): 1.87 ± 0.09 mPa·s
- mass density (318.15 K, x1 = 0.1849): 888.81 ± 0.94 kg/m3
- viscosity (318.15 K, x1 = 0.1849): 2.75 ± 0.13 mPa·s
- mass density (318.15 K, x1 = 0.2538): 916.58 ± 0.84 kg/m3
- viscosity (318.15 K, x1 = 0.2538): 3.4 ± 0.15 mPa·s
- mass density (318.15 K, x1 = 0.3429): 945.66 ± 0.75 kg/m3
- viscosity (318.15 K, x1 = 0.3429): 4.49 ± 0.2 mPa·s
- mass density (318.15 K, x1 = 0.4577): 976.07 ± 0.69 kg/m3
- viscosity (318.15 K, x1 = 0.4577): 6.43 ± 0.27 mPa·s
- mass density (318.15 K, x1 = 0.5868): 1003.01 ± 0.71 kg/m3
- viscosity (318.15 K, x1 = 0.5868): 9.37 ± 0.38 mPa·s
- mass density (318.15 K, x1 = 0.6791): 1018.27 ± 0.88 kg/m3
- viscosity (318.15 K, x1 = 0.6791): 11.2 ± 0.5 mPa·s
- mass density (318.15 K, x1 = 0.805): 1036.08 ± 1.1 kg/m3
- viscosity (318.15 K, x1 = 0.805): 13.4 ± 0.5 mPa·s
- mass density (318.15 K, x1 = 0.9342): 1051.09 ± 1.4 kg/m3
- viscosity (318.15 K, x1 = 0.9342): 18.7 ± 0.7 mPa·s
- mass density (318.15 K, x1 = 1): 1058.02 ± 1.6 kg/m3
- viscosity (318.15 K, x1 = 1): 24.2 ± 0.9 mPa·s
- mass density (328.15 K, x1 = 0.0267): 795 ± 1.3 kg/m3
- viscosity (328.15 K, x1 = 0.0267): 1.2 ± 0.06 mPa·s
- mass density (328.15 K, x1 = 0.0833): 831.26 ± 1.2 kg/m3
- viscosity (328.15 K, x1 = 0.0833): 1.55 ± 0.07 mPa·s
- mass density (328.15 K, x1 = 0.1849): 881.57 ± 0.98 kg/m3
- viscosity (328.15 K, x1 = 0.1849): 2.27 ± 0.11 mPa·s
- mass density (328.15 K, x1 = 0.2538): 909.63 ± 0.87 kg/m3
- viscosity (328.15 K, x1 = 0.2538): 2.8 ± 0.1 mPa·s
- mass density (328.15 K, x1 = 0.3429): 939 ± 0.78 kg/m3
- viscosity (328.15 K, x1 = 0.3429): 3.6 ± 0.2 mPa·s
- mass density (328.15 K, x1 = 0.4577): 969.67 ± 0.72 kg/m3
- viscosity (328.15 K, x1 = 0.4577): 5.1 ± 0.2 mPa·s
- mass density (328.15 K, x1 = 0.5868): 996.84 ± 0.7 kg/m3
- viscosity (328.15 K, x1 = 0.5868): 7.3 ± 0.3 mPa·s
- mass density (328.15 K, x1 = 0.6791): 1012.18 ± 0.84 kg/m3
- viscosity (328.15 K, x1 = 0.6791): 8.7 ± 0.4 mPa·s
- mass density (328.15 K, x1 = 0.805): 1030.11 ± 1.1 kg/m3
- viscosity (328.15 K, x1 = 0.805): 10.4 ± 0.4 mPa·s
- mass density (328.15 K, x1 = 0.9342): 1045.22 ± 1.4 kg/m3
- viscosity (328.15 K, x1 = 0.9342): 14 ± 0.6 mPa·s
- mass density (328.15 K, x1 = 1): 1052.19 ± 1.5 kg/m3
- viscosity (328.15 K, x1 = 1): 16.7 ± 0.7 mPa·s
- mass density (338.15 K, x1 = 0.0267): 786.6 ± 1.4 kg/m3
- viscosity (338.15 K, x1 = 0.0267): 1 ± 0.05 mPa·s
- mass density (338.15 K, x1 = 0.0833): 823.39 ± 1.2 kg/m3
- viscosity (338.15 K, x1 = 0.0833): 1.3 ± 0.06 mPa·s
- mass density (338.15 K, x1 = 0.1849): 874.27 ± 1 kg/m3
- viscosity (338.15 K, x1 = 0.1849): 1.9 ± 0.09 mPa·s
- mass density (338.15 K, x1 = 0.2538): 902.7 ± 0.9 kg/m3
- viscosity (338.15 K, x1 = 0.2538): 2.35 ± 0.11 mPa·s
- mass density (338.15 K, x1 = 0.3429): 932.34 ± 0.81 kg/m3
- viscosity (338.15 K, x1 = 0.3429): 3.01 ± 0.14 mPa·s
- mass density (338.15 K, x1 = 0.4577): 963.3 ± 0.75 kg/m3
- viscosity (338.15 K, x1 = 0.4577): 4.18 ± 0.19 mPa·s
- mass density (338.15 K, x1 = 0.5868): 990.7 ± 0.73 kg/m3
- viscosity (338.15 K, x1 = 0.5868): 5.89 ± 0.26 mPa·s
- mass density (338.15 K, x1 = 0.6791): 1006.14 ± 0.81 kg/m3
- viscosity (338.15 K, x1 = 0.6791): 6.97 ± 0.3 mPa·s
- mass density (338.15 K, x1 = 0.805): 1024.2 ± 1.1 kg/m3
- viscosity (338.15 K, x1 = 0.805): 8.19 ± 0.34 mPa·s
- mass density (338.15 K, x1 = 0.9342): 1039.4 ± 1.3 kg/m3
- viscosity (338.15 K, x1 = 0.9342): 10.9 ± 0.4 mPa·s
- mass density (338.15 K, x1 = 1): 1046.43 ± 1.5 kg/m3
- viscosity (338.15 K, x1 = 1): 12.7 ± 0.5 mPa·s
- mass density (348.15 K, x1 = 0.0267): 777.98 ± 1.4 kg/m3
- viscosity (348.15 K, x1 = 0.0267): 0.848 ± 0.043 mPa·s
- mass density (348.15 K, x1 = 0.0833): 815.39 ± 1.3 kg/m3
- viscosity (348.15 K, x1 = 0.0833): 1.1 ± 0.05 mPa·s
- mass density (348.15 K, x1 = 0.1849): 866.94 ± 1 kg/m3
- viscosity (348.15 K, x1 = 0.1849): 1.62 ± 0.08 mPa·s
- mass density (348.15 K, x1 = 0.2538): 895.73 ± 0.94 kg/m3
- viscosity (348.15 K, x1 = 0.2538): 2 ± 0.09 mPa·s
- mass density (348.15 K, x1 = 0.3429): 925.71 ± 0.84 kg/m3
- viscosity (348.15 K, x1 = 0.3429): 2.56 ± 0.12 mPa·s
- mass density (348.15 K, x1 = 0.4577): 956.97 ± 0.77 kg/m3
- viscosity (348.15 K, x1 = 0.4577): 3.46 ± 0.16 mPa·s
- mass density (348.15 K, x1 = 0.5868): 984.6 ± 0.75 kg/m3
- viscosity (348.15 K, x1 = 0.5868): 4.81 ± 0.22 mPa·s
- mass density (348.15 K, x1 = 0.6791): 1000.13 ± 0.78 kg/m3
- viscosity (348.15 K, x1 = 0.6791): 5.64 ± 0.25 mPa·s
- mass density (348.15 K, x1 = 0.805): 1018.32 ± 1 kg/m3
- viscosity (348.15 K, x1 = 0.805): 6.62 ± 0.28 mPa·s
- mass density (348.15 K, x1 = 0.9342): 1033.61 ± 1.3 kg/m3
- viscosity (348.15 K, x1 = 0.9342): 8.69 ± 0.36 mPa·s
- mass density (348.15 K, x1 = 1): 1040.7 ± 1.4 kg/m3
- viscosity (348.15 K, x1 = 1): 9.98 ± 0.41 mPa·s
